≈ marks a conversion by molar mass, not a printed value.
Assays:
P. aeruginosa biofilms = assay: Biofilm growth assay (spreading biofilm on semi-solid agar), P. aeruginosa; format: cell-based; parameters: P. aeruginosa (n = 10) inhibitory concentration in the biofilm growth assay: unit: ug/mL; conditions: for P. aeruginosa (n = 10) inhibitory concentration in the biofilm growth assay: Table 6, n = 10 isolates; for IC85: Pseudomonas aeruginosa, biofilm growth assay, overnight 37° C., vs negative controls, Tables 1-5, read-out: P. aeruginosa: concentration that reduces the area of the spreading biofilm by greater than or equal to 85%
Method in brief: (§1)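 Compound added to semi-solid agar: M8 with 0.2% glucose, 100 μM CaCl2, 1 mM MgSO4, 0.5% Casamino acids (P. aeruginosa) or LB with 0.6% agar, 0.5% glucose (E. coli). Center-inoculated with 5 μL overnight culture, incubated overnight at 37 °C; value is concentration (μg/ml) reducing spreading area ≥85% versus negative controls.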

B. cepacia = assay: Biofilm growth assay, Burkholderia cepacia; format: cell-based; conditions: Table 6, n = 10 isolates; M9 salts, 0.7% citrate, 0.4% Noble agar
Experimental: The biofilm growth assay was carried out to measure swarming or biofilm spreading on semi-solid agar media in round plates (for example, 100×15 mm), also referred to as Petri dishes. For E. coli, the plates contained LB medium with 0.6% agar and 0.5% glucose. P. aeruginosa plates were made with M8 agar supplemented with 0.2% glucose, 100 μM CaCl2, 1 mM MgSO4, and 0.5% Casamino acids. The agar plates of this assay consisted of 0.4% to 0.7% agar (Bacto or Noble agar), although other media may also be used as described in the literature and known to those skilled in the art. Test compounds at the desired concentration were added to the cooled, autoclaved media. Portions of the media were then poured into the plates (20 mL/plate), and the plates allowed to dry at room temperature for approximately 3 to 4 hours. Alternatively, however, plates may be dried in a laminar flow hood for approximately fifteen to twenty minutes. Overnight cultures were grown in a 37° C. shaker in LB (E. coli) or TSB (P. aeruginosa). Plates were inoculated by placing 5 μL of the appropriate overnight culture in the centers of the plates. The plates then were incubated overnight at 37° C. The area of the zone of spreading bacteria was then measured and replicates are averaged. Percent inhibition was calculated as 100×(area without compound−area with compound)/(area without compound). […] A > (“greater than” symbol) as used in Table 1 is well understood to those skilled in the art as an indication that the listed concentration was not effective at this concentration.
(§2) Table 6, below, lists the inhibitory concentrations of select compounds and antibiotics in the biofilm growth assay against various gram-negative bacterial biofilms. “N” means the number of isolates of bacteria tested. The biofilm growth assay procedure detailed in Example I, above, was followed. Burkholderia cepacia used media consisting of M9 salts, 100 μM CaCl2, 1 mM MgSO4, and 0.7% citrate in 0.4% Noble agar. Salmonella spp. used media consisting of Nutrient Broth with 0.5% glucose in 0.5% Noble agar.

Salmonella spp. = assay: Biofilm growth assay, Salmonella spp.; format: cell-based; conditions: Table 6, n = 6 isolates; Nutrient Broth, 0.5% glucose, 0.5% Noble agar
Experimental: The biofilm growth assay was carried out to measure swarming or biofilm spreading on semi-solid agar media in round plates (for example, 100×15 mm), also referred to as Petri dishes. For E. coli, the plates contained LB medium with 0.6% agar and 0.5% glucose. P. aeruginosa plates were made with M8 agar supplemented with 0.2% glucose, 100 μM CaCl2, 1 mM MgSO4, and 0.5% Casamino acids. The agar plates of this assay consisted of 0.4% to 0.7% agar (Bacto or Noble agar), although other media may also be used as described in the literature and known to those skilled in the art. Test compounds at the desired concentration were added to the cooled, autoclaved media. Portions of the media were then poured into the plates (20 mL/plate), and the plates allowed to dry at room temperature for approximately 3 to 4 hours. Alternatively, however, plates may be dried in a laminar flow hood for approximately fifteen to twenty minutes. Overnight cultures were grown in a 37° C. shaker in LB (E. coli) or TSB (P. aeruginosa). Plates were inoculated by placing 5 μL of the appropriate overnight culture in the centers of the plates. The plates then were incubated overnight at 37° C. The area of the zone of spreading bacteria was then measured and replicates are averaged. Percent inhibition was calculated as 100×(area without compound−area with compound)/(area without compound). An active compound was considered that which reduces the area of the spreading biofilm compared to negative controls by greater than or equal to 85%. The values shown in Table 1 are the concentrations of compounds (μg/ml) tested in the biofilm growth assay that reduce the area of the spreading biofilm compared to negative controls by greater than or equal to 85% unless noted differently in Table 1. A > (“greater than” symbol) as used in Table 1 is well understood to those skilled in the art as an indication that the listed concentration was not effective at this concentration.
as §2

E. coli biofilms = assay: Biofilm growth assay (spreading biofilm on semi-solid agar), E. coli; format: cell-based; parameters: E. coli (n = 10) inhibitory concentration in the biofilm growth assay: unit: ug/mL; conditions: for E. coli (n = 10) inhibitory concentration in the biofilm growth assay: Table 6, n = 10 isolates; for IC85: Escherichia coli, biofilm growth assay, overnight 37° C., vs negative controls, Tables 1-5, read-out: E. coli: concentration that reduces the area of the spreading biofilm by greater than or equal to 85%
Method in brief: as §1

Evaluation of salts = format: physicochemical
Experimental: Evaluation of Compound 62 (Table 4) salt formation was performed. […] As stated herein, the invention also includes compounds and their salts. Evaluation of Compound 64 (Table 4) salt formation was performed. HCl (mono and bis), p-TSA (bis), BSA (bis), MSA (bis), H2SO4 (mono), and H3PO4 (mono) provided salts with crystallinity. […] As stated herein, the invention also includes compounds and their salts.

SMILES: CC[C@H]1OC(=O)[C@H](C)[C@@H](O[C@H]2C[C@@](C)(OC)[C@@H](O)[C@H](C)O2)[C@H](C)[C@@H](O[C@@H]2O[C@H](C)C[C@H](N(C)C)[C@H]2O)[C@](C)(O)C[C@@H](C)CN(C)[C@H](C)[C@@H](O)[C@]1(C)O [Azithromycin, azithromycin]
- P. aeruginosa (n = 10) inhibitory concentration in the biofilm growth assay (P. aeruginosa biofilms): >16
- B. cepacia (n = 10) inhibitory concentration in the biofilm growth assay (B. cepacia): >16
- Salmonella spp. (n = 6) inhibitory concentration in the biofilm growth assay (Salmonella spp.): >16

SMILES: CC(C)(O/N=C(\C(=O)N[C@@H]1C(=O)N2C(C(=O)[O-])=C(C[n+]3ccccc3)CS[C@H]12)c1csc(N)n1)C(=O)O [Ceftazidime, ceftazidime, reference compound]
- P. aeruginosa (n = 10) inhibitory concentration in the biofilm growth assay (P. aeruginosa biofilms): 4
- E. coli (n = 10) inhibitory concentration in the biofilm growth assay (E. coli biofilms): 0.25
- B. cepacia (n = 10) inhibitory concentration in the biofilm growth assay (B. cepacia): >8
- Salmonella spp. (n = 6) inhibitory concentration in the biofilm growth assay (Salmonella spp.): 0.5

SMILES: CC1(C)CC[C@]2(C(N)=O)CC[C@]3(C)C(=CCC4[C@@]5(C)Cc6c(n[nH]c6N)C(C)(C)[C@@H]5CC[C@]43C)[C@@H]2C1 (stereo partly drawn) [Compound 62, (4aS,6aS,6bR,13aR)-12-Amino-2,2,6a,6b,9,9,13a-heptamethyl-2,3,4,4a,5,6,6a,6b,7,8,8a,9,11,13,13a,13b,14,15b-octadecahydro-1H-chryseno[1,2-f]indazole-4-a-carboxamide]
- IC85 (P. aeruginosa biofilms): 1 µg/mL (≈ 2.03 µM)
- IC85 (E. coli biofilms): 1 µg/mL (≈ 2.03 µM)
- physical properties of salts compared to freebase (Evaluation of salts; p-toluenesulfonic acid (mono) and H3PO4 (bis) salts): most desirable physical properties

SMILES: CN(C)C[C@]12CCC(C)(C)C[C@H]1C1=CC[C@@H]3[C@@]4(C)Cc5c(n[nH]c5N)C(C)(C)[C@@H]4CC[C@@]3(C)[C@]1(C)CC2 [Compound 64]
- IC85 (P. aeruginosa biofilms): 0.5 µg/mL (≈ 0.987 µM)
- IC85 (E. coli biofilms): 1 µg/mL (≈ 1.97 µM)
- aqueous solubility of salts compared to freebase (Evaluation of salts; Bis-MSA and mono-H3PO4 salts): increased aqueous solubility

SMILES: CC1(C)CC[C@]2(C(=O)O)CC[C@]3(C)C(=C(c4c[nH]c5ccccc45)CC4[C@@]5(C)Cc6c(n[nH]c6N)C(C)(C)[C@@H]5CC[C@]43C)[C@@H]2C1 (stereo partly drawn) [Example 8, (4aS,6aS,6bR,8aR,13aR,15bS)-12-Amino-15-(1H-indol-3-yl)-2,2,6a,6b,9,9,13a-heptamethyl-2,3,4,4a,5,6,6a,6b,7,8,8a,9,11,13,13a,13b,14,15b-octadecahydro-1H-chryseno[1,2-f]indazole-4-a-carboxylic acid]
- IC85 (P. aeruginosa biofilms): 0.25 µg/mL (≈ 0.411 µM)
- IC85 (E. coli biofilms): 1 µg/mL (≈ 1.64 µM)
- melting point: > 300 °C (dec.)

SMILES: CC1(C)CC[C@]2(C(=O)O)CC[C@]3(C)C(=C(c4c[nH]c(CN5CCOCC5)c4)CC4[C@@]5(C)Cc6c(n[nH]c6N)C(C)(C)[C@@H]5CC[C@]43C)[C@@H]2C1 (stereo partly drawn) [Example 9, (4aS,6aS,6bR,8aR,13aR,15bS)-12-Amino-2,2,6a,6b,9,9,13a-heptamethyl-15-(5-(morpholinomethyl)-1H-pyrrol-3-yl)-2,3,4,4a,5,6,6a,6b,7,8,8a,9,11,13,13a,13b,14,15b-octadecahydro-1H-chryseno[1,2-f]indazole-4-a-carboxylic acid]
- IC85 (P. aeruginosa biofilms): 0.5 µg/mL (≈ 0.76 µM)
- IC85 (E. coli biofilms): 1 µg/mL (≈ 1.52 µM)
- melting point: 270 to 280 °C (dec.)

SMILES: CC1(C)CC[C@]2(C(=O)O)CC[C@]3(C)C(=C(c4cccnc4)CC4[C@@]5(C)Cc6c(n[nH]c6N)C(C)(C)[C@@H]5CC[C@]43C)[C@@H]2C1 (stereo partly drawn) [Example 12, (4aS,6aS,6bR,8aR,13aR,15bS)-12-Amino-2,2,6a,6b,9,9,13a-heptamethyl-15-(pyridin-3-yl)-2,3,4,4a,5,6,6a,6b,7,8,8a,9,11,13,13a,13b,14,15b-octadecahydro-1H-chryseno[1,2-f]indazole-4-a-carboxylic acid]
- IC85 (P. aeruginosa biofilms): 0.5 µg/mL (≈ 0.876 µM)
- IC85 (E. coli biofilms): 1 µg/mL (≈ 1.75 µM)
- melting point: > 300 °C

SMILES: C=CC1=C2[C@@H]3CC(C)(C)CC[C@]3(C(=O)O)CC[C@@]2(C)[C@]2(C)CC[C@H]3C(C)(C)c4n[nH]c(N)c4C[C@]3(C)C2C1 (stereo partly drawn) [Example 13, (4aS,6aS,6bR,8aR,13aR,15bS)-12-Amino-2,2,6a,6b,9,9,13a-heptamethyl-15-vinyl-2,3,4,4a,5,6,6a,6b,7,8,8a,9,11,13,13a,13b,14,15b-octadecahydro-1H-chryseno[1,2-f]indazole-4-a-carboxylic acid]
- IC85 (P. aeruginosa biofilms): 0.5 µg/mL (≈ 0.962 µM)
- IC85 (E. coli biofilms): 1 µg/mL (≈ 1.92 µM)
- melting point: > 300 °C

SMILES: CN(C)c1cc(C2=C3[C@@H]4CC(C)(C)CC[C@]4(C(=O)O)CC[C@@]3(C)[C@]3(C)CC[C@H]4C(C)(C)c5n[nH]c(N)c5C[C@]4(C)C3C2)ccn1 (stereo partly drawn) [Example 22, (4aS,6aS,6bR,8aR,13aR,15bS)-12-Amino-15-(2-(dimethylamino)pyridin-4-yl)-2,2,6a,6b,9,9,13a-heptamethyl-2,3,4,4a,5,6,6a,6b,7,8,8a,9,11,13,13a,13b,14,15b-octadecahydro-1H-chryseno[1,2-f]indazole-4-a-carboxylic acid]
- IC85 (P. aeruginosa biofilms): 1 µg/mL (≈ 1.63 µM)
- IC85 (E. coli biofilms): > 2 µg/mL
- melting point: > 300 °C

SMILES: NC[C@H]1O[C@H](O[C@H]2[C@H](O)[C@@H](O[C@H]3O[C@H](CO)[C@@H](O)[C@H](N)[C@H]3O)[C@H](N)C[C@@H]2N)[C@H](N)C[C@@H]1O [Tobramycin, tobramcyin, reference compound]
- P. aeruginosa (n = 10) inhibitory concentration in the biofilm growth assay (P. aeruginosa biofilms): 4
- E. coli (n = 10) inhibitory concentration in the biofilm growth assay (E. coli biofilms): 16
- B. cepacia (n = 10) inhibitory concentration in the biofilm growth assay (B. cepacia): >64
- Salmonella spp. (n = 6) inhibitory concentration in the biofilm growth assay (Salmonella spp.): 8
